This note sets out measurements from patent publication US5693815A, “Peptides” (Schering Corporation, priority 1995, dated 1997).

This test addresses HIV-1 protease (Human immunodeficiency virus type 1 group M subtype B, UniProt P04585). The test is described as follows: Inhibition of proteolytic activity of HIV-1 protease, Test 1 (method of Louis et al.). It counts as biochemical. The text has this:
TEST 1--INHIBITION OF PROTEOLYTIC ACTIVITY OF HIV-1-PROTEASE
The ability of compounds of the invention to inhibit the proteolytic activity of HIV-1 protease can be determined by using the method of Louis, et al., Biochem. Biophys. Res. Comm. 159:87-94, (1989), which is herein incorporated by reference. In using the method of Louis et al., HIV Substrate III, His-Lys-Ala-Arg-Val-Leu-pNO2 Phe-Glu-Ala-Nle-Ser-NH2 purchased from Bachem Bioscience, Inc. Philadelphia, Pa. can be used in place of the nonapeptide substrate […]amide.

pIC50: −log10 of the molar value.

For `CC(C)(C)NC(=O)c1ccccc1SCC(O)C(Cc1ccccc1)NC(=O)C1CC2CCCCC2N1C(=O)OC(C)(C)C` (stereo not shown) [U, 1-[(1,1-dimethylethoxy)carbonyl]-N-[3-[[2-[[(1,1-dimethylethyl)amino]carbonyl]phenyl]thio]-2(R and/or S)-hydroxy-1(R and/or S)-(phenylmethyl)-propyl]octahydroindole-2-carboxamide], the pIC50 – broadly, the IC50 on a negative log10 scale, so that one unit is a factor of ten – was 4.42.
